Where a SMILES comes first, the peptide text is derived from it. Where no end group is shown, it is not given here.
Legend:
[1] = system: K. pneumonia ATCC 700603; assay type: cell-based, Klebsiella pneumonia; conditions: 10^5-10^6 CFU/ml in PBS pH 7.2, 3 h at 37°C, colony count, mean ± SD of three
Source text: (§1) Ten strains obtained from the American Type Culture Collection (ATCC) and China Center of Industrial Culture Collection (CICC) were used for antibacterial and salt resistance assays. The Gram-positive strains were Staphyloccocus aureus ATCC 29213, Enterococcus faecalis ATCC 29212, Staphylococcus epidermidis ATCC 12228, Enterococcus faecium ATCC 6057, and Enterococcus faecium ATCC 19434. The Gram-negative strains were Escherichia coli ATCC 25922, Pseudomonas aeruginosa ATCC 15442, Klebsiella pneumonia ATCC 700603, Shigella flexneri CICC 21534, and Shigella sonnei CICC 21535. Fifteen E. coli clinical isolates were collected from 302 Military Hospital of China. The Gram-positive and Gram-negative strains were grown in Luria—Bertani (LB) and Mueller—Hinton (MH) media at 37°C, respectively.
(§2) The antibacterial activities of these peptides were determined in a modified microdilution assay as described previously. […] The five concentrations of the peptides were added to 200 μl of the bacterial suspension and then incubated at 37°C for 3 h before CFU numbers were determined. […] The cells were serially diluted in the same buffer, plated on Luria broth plates, and then incubated for 18 h at 37°C before the resulting colonies were counted. The bactericidal activity was expressed as the ratio of colonies counted to the number of colonies on a control plate. […]

[2] = system: E. coli ATCC 25922; assay type: cell-based, Escherichia coli; conditions: 10^5-10^6 CFU/ml in PBS pH 7.2, 3 h at 37°C, colony count, mean ± SD of three
Source text: as §1, §2

[3] = system: E. faecalis ATCC 29212; assay type: cell-based, Enterococcus faecalis; conditions: 10^5-10^6 CFU/ml in PBS pH 7.2, 3 h at 37°C, colony count, mean ± SD of three
Source text: as §1, §2

[4] = system: four Gram-positive and five Gram-negative bacteria; experiment: Salt resistance assay, summary over the nine tested strains; assay type: cell-based; conditions: peptide 10 μg/ml (30 μg/ml K. pneumonia)
Experimental: (§3) The antibacterial activities of these peptides were determined in a modified microdilution assay as described previously. The strains were grown under aerobic condition in MH or LB broth at 37°C and then harvested in the exponential phase of growth (OD600 ≈ 0.6. OD, optical density). After dilution, the test strains were adjusted to 10^5 to 10^6 CFU bacteria per ml in phosphate-buffered saline solution (pH 7.2). The five concentrations of the peptides were added to 200 μl of the bacterial suspension and then incubated at 37°C for 3 h before CFU numbers were determined. Phosphate buffer served as the negative control. The cells were serially diluted in the same buffer, plated on Luria broth plates, and then incubated for 18 h at 37°C before the resulting colonies were counted. The bactericidal activity was expressed as the ratio of colonies counted to the number of colonies on a control plate. The 90% lethal concentration (LD90) is the concentration of the peptide at which 90% of viable cells are killed.
(§4) For the salt resistance assay, NaCl was included in the incubation buffer (1% MH or LB) over a range of concentrations (0, 50, 100, 150, and 200 mM NaCl) potentially present in the airway surface fluid of healthy subjects and patients with cystic fibrosis. For E. coli clinical isolates, the NaCl concentrations were increased to 0, 50, 100, 150, 200, 250, and 300 mM. The peptide concentration used in the salt dependence assay was 10 μg/ml, except for the 30 μg/ml concentration used against K. pneumonia ATCC 700603. Each assay was performed in triplicate. Bactericidal activity (the mean and standard deviation of three assays) was expressed as the ratio between the number of colonies counted and the number of colonies on a control plate.

[5] = system: E. faecium ATCC 6057; assay type: cell-based, Enterococcus faecium; conditions: 10^5-10^6 CFU/ml in PBS pH 7.2, 3 h at 37°C, colony count, mean ± SD of three
Source text: as §1, §2

[6] = system: E. faecium ATCC 19434; assay type: cell-based, Enterococcus faecium; conditions: 10^5-10^6 CFU/ml in PBS pH 7.2, 3 h at 37°C, colony count, mean ± SD of three
Source text: as §1, §2

[7] = system: S. sonnei CICC 21535; assay type: cell-based, Shigella sonnei; conditions: 10^5-10^6 CFU/ml in PBS pH 7.2, 3 h at 37°C, colony count, mean ± SD of three
Source text: as §1, §2

[8] = system: S. epidermidis ATCC 12228; assay type: cell-based, Staphylococcus epidermidis; conditions: 10^5-10^6 CFU/ml in PBS pH 7.2, 3 h at 37°C, colony count, mean ± SD of three
Source text: as §1, §2

[9] = system: S. flexneri CICC 21534; assay type: cell-based, Shigella flexneri; conditions: 10^5-10^6 CFU/ml in PBS pH 7.2, 3 h at 37°C, colony count, mean ± SD of three
Source text: as §1, §2

[10] = system: P. Aeruginosa ATCC 15442; assay type: cell-based, Pseudomonas aeruginosa; conditions: 10^5-10^6 CFU/ml in PBS pH 7.2, 3 h at 37°C, colony count, mean ± SD of three
Source text: as §1, §2

[11] = system: S. aureus ATCC 29213; assay type: cell-based, Staphyloccocus aureus; conditions: 10^5-10^6 CFU/ml in PBS pH 7.2, 3 h at 37°C, colony count, mean ± SD of three
Source text: as §1, §2

[12] = system: fifteen E. coli clinical isolates; experiment: Salt resistance assay against clinical isolates; assay type: cell-based, Escherichia coli; conditions: of 15 E. coli clinical isolates, peptide 10 μg/ml
Source text: as §1, §3, §4

[13] = system: Vero cells
Experimental: Vero cells suspended in Dulbecco’s modified Eagle’s medium (DMEM)-high glucose culture medium supplemented with 10% (vol/vol) fetal calf serum and 1% (vol/vol) penicillin—streptomycin were seeded on a 96-well microtiter plate at a density of 1×10^4 cells per well. After incubation overnight at 37°C under 5% CO2 in a humidified atmosphere, the cells were washed twice with buffer (pH 7.4) containing 20 mM HEPES and 150 mM NaCl. Defensins were diluted in the same wash buffer, and 200 μl was added per well. The buffer was discarded after 2 h of incubation at 37°C under 5% CO2. Subsequently, 200 μl of DMEM and 50 μl of 3-(4,5-dimethylthiazol-2-yl)-2,5-diphenyltetrazolium bromide (MTT, 5 mg/ml) were added. DMEM (100%) and MTT were discarded, and 200 μl of DMSO was added in the plate after 6 h of incubation at 37°C under 5% CO2. The absorbance was measured at 490 nm with a microtiter plate reader.

Molecule | LD90 (Mean ± SD) [1] | LD90 (Mean ± SD) [2] [µg/mL] | LD90 (Mean ± SD) [3] [µg/mL] | Effect of NaCl on antibacterial activity ([4]; 50 mM NaCl, all the tested strains, except for E. coli) | Effect of NaCl on antibacterial activity ([4]; 200 mM NaCl versus 0 mM NaCl, P < 0.01) | LD90 (Mean ± SD) [5] [µg/mL] | LD90 (Mean ± SD) [6] [µg/mL] | LD90 (Mean ± SD) [7] [µg/mL] | LD90 (Mean ± SD) [8] [µg/mL] | LD90 (Mean ± SD) [9] [µg/mL] | LD90 (Mean ± SD) [10] [µg/mL] | LD90 (Mean ± SD) [11] [µg/mL] | Number of isolates in which 50% or more activity was retained ([12]; 200 mM NaCl) | Concentration from which cytotoxicity starts [13] | Effect of NaCl on antibacterial activity ([4]; 100 mM NaCl, all the tested strains, except for S. aureus) | Number of isolates in which 50% or more activity was retained ([12]; 250 mM NaCl) [isolates] | Number of isolates in which 50% or more activity was retained ([12]; 300 mM NaCl) [isolates]
CC[C@H](C)[C@H](NC(=O)[C@H](CCC(N)=O)NC(=O)[C@H](CCC(=O)O)NC(=O)[C@H](CCC(=O)O)NC(=O)[C@H](CCCCN)NC(=O)[C@@H]1CCCN1C(=O)[C@H](CC(C)C)NC(=O)[C@H](CS)NC(=O)[C@H](CO)NC(=O)[C@H](CC(C)C)NC(=O)[C@@H](NC(=O)[C@H](C)NC(=O)[C@H](CS)NC(=O)[C@H](CCCNC(=N)N)NC(=O)CNC(=O)CNC(=O)[C@H](CCCNC(=N)N)NC(=O)[C@@H](NC(=O)[C@H](CCCNC(=N)N)NC(=O)[C@H](CS)NC(=O)[C@@H](N)Cc1ccc(O)cc1)C(C)C)C(C)C)C(=O)NCC(=O)N[C@@H](CCCCN)C(=O)N[C@@H](CS)C(=O)N[C@@H](CO)C(=O)N[C@H](C(=O)N[C@@H](CCCNC(=N)N)C(=O)NCC(=O)N[C@@H](CCCNC(=N)N)C(=O)N[C@@H](CCCCN)C(=O)N[C@@H](CS)C(=O)N[C@@H](CS)C(=O)N[C@@H](CCCNC(=N)N)C(=O)N[C@@H](CCCNC(=N)N)C(=O)N[C@@H](CCCCN)C(=O)N[C@@H](CCCCN)C(=O)O)[C@@H](C)O [hBD-3Δ10] (H-YCRVRGGRCAVLSCLPKEEQIGKCSTRGRKCCRRKK-OH; N-terminus and C-terminus assumed) | more than 100 μg/ml |  |  |  |  |  |  |  |  |  |  |  |  |  |  |  | 
GIINTLQKYYCRVRGGRCAVLSCLPKEEQIGKCSTRGRKCCRRKK (cysteines drawn unpaired) [hBD-3, human beta-defensin 3] | 18.6 ± 2.8 µg/mL | 8.0 ± 1.2 | 2.4 ± 1.0 | not or slightly inhibited | greatly inhibited | 1.6 ± 0.4 | 2.3 ± 0.5 | 4.0 ± 0.7 | 3.5 ± 1.2 | 3.7 ± 0.2 | 6.8 ± 0.9 | 4.0 ± 0.8 | two | higher than 20 μg/ml |  |  | 
NTLQKYYCRVRGGRCAVLSCLPKEEQIGKCSTRGRKCCRRKK (cysteines drawn unpaired) [hBD-3Δ4] |  |  |  |  |  |  |  |  |  |  |  |  | 14 isolates |  | almost the same antimicrobial activity as it would have in the absence of NaCl | 8 | 5
